From US7833998B2, “Oral neurotherapeutic cephalosporin sulfoxide and sulfone-containing compositions” (Revaax Pharmaceuticals, LLC, priority 2003, dated 2010)

Tests used:
[1] = test system: extracellular neurotransmitter levels in the area of the nucleus accumbens; assay: microdialysis of nucleus accumbens, electrochemical detection of metabolites; assay type: in vivo, Sprague Dawley rats; settings: rats, intra-peritoneal 10 ng to 100 μg/kg, dialysate 15-75 minutes post-treatment
Description: To test this hypothesis, extracellular neurotransmitter levels in the area of the nucleus accumbens were assessed with microdialysis following Δ^3-cefazolin sulfoxide treatment. The accumbens is part of the limbic forebrain best know for its association with the pathophysiology of schizophrenia, conditioned reinforcement and drug addiction but also thought to be involved in sensitization to early life trauma leading to the anxiety disorder PTSD or post traumatic stress disorder (Charney and Bremner (1999) The neurobiology of anxiety disorder. In: NEUROBIOLOGY OF MENTAL ILLNESS (Cahrney, D S, et al eds.), Oxford University Press, New York, pgs 494-517).
Method. Twenty-four male Sprague Dawley rats were anesthetized with sodium pentobarbital (50 mg/kg) and implanted with a unilateral microdialysis guide cannula aimed at the nucleus accumbens. Animals were divided into six groups of four animals each and treated with a range of cefazolin doses (saline vehicle, 10 ng, 100 ng, 1 μg, 10 μg, 100 μg/kg) (FIGS. 6a-c). Two days after recovery from surgery a microdialysis probe (2 mm) was lowered to the area and connected to an infusion pump through Tygon tubing. The dialysate was artificial CSF at pH 7.4 delivered at a flow rate of 1.8 μl/min. The first 30 minutes of dialysate was discarded. Thereafter, samples were collected at 15 minute intervals 45 minutes prior to and 75 minutes following intra-peritoneal administration of Δ^3-cefazolin sulfoxide. Samples were collected into microfuge tubes containing 5 μl of 0.16 N perchloric acid to stabilize catecholamines. At the end of the study, animals were sacrificed and the brains prepared for histology to verify the site of the microdialysis probe.
The levels of dopamine metabolites DOPAC (FIG. 6a) and HVA (FIG. 6b) and serotonin metabolite HIAA (FIG. 6c) were assessed by electrochemical detection. […] Measures from each of the four remaining samples collected between 15-75 minutes post-treatment were analyzed. […] Mean values were analyzed with a one-way ANOVA followed by Bonferroni's post hoc test.

BALBc mice = assay: radial arm maze, learning and memory; assay type: in vivo, mouse; settings: intra-peritoneal 2.5 ng, 250 ng, 25 μg/kg
Excerpt: The radial arm maze is one of the most commonly used methods for testing spatial learning and memory in rodents. Developed by Olton and co-workers (Olton, D. S., Samuelson, R. J. (1976) J. Experimental Psychology, 2: 97-115), the maze provides the simultaneous choice of several alternative paths for the test subject. Animals must learn which locations provide food (place learning) using visuospatial cues. Animal care. Male BALBc mice weighing 21-23 gm were housed individually in a normal 12:12 light-dark cycle (light on at 0600 hr) and provide food and water ad libitum. The method described below was reported by Crusio et al., (1987) Brain Research, 425: 182-185. The radial arm maze consisted of a central platform and eight arms made of transparent Plexiglas. The central part measured 22 cm in diameter. The closed arms were 25 cm long, 6 cm high and 6 cm wide. Several fresh food pellets were deposited beyond the end of each arm behind a perforated wall. This arrangement served to prevent the animals from selecting a baited arm by smelling the presence or absence of a reward. […] Entry to an arm was counted when the mouse reached the perforated wall. […] The number of errors was recorded for each day of training. […] Dose response effects were assessed by means of a repeated measured two-way ANOVA followed by Bonferroni's post hoc test.

golden hamsters = settings: King et al. 2001; effective anxiolytics at doses of 1 μg/kg and above; cited from earlier work
Wistar rats [2] = settings: rat, literature validation of the method; cited from earlier work
Wistar rats [3] = assay: elevated plus-maze; assay type: in vivo, rat
Excerpt: The elevated plus-maze was developed for the assessment of anxiolytic and anxiogenic drug effects in the rat (Pellow et al., (1985) Journal of Neuroscience Methods 14: 149-167). The method has been validated behaviorally, physiologically, and pharmacologically. The plus-maze has two open arms and two enclosed arms. […] Conversely, anxiogenic compounds such as yohimbin or amphetamines reduce open arm entries and time spent in the open arms.
Method. Male Wistar rats weighing 250-300 g were group housed in a normal 12:12 light-dark cycle light on at 0800 hour and provided food and water ad libitum. The plus-maze consisted of two open arms, 50×10 cm, and two enclosed arms 50×10×40 cm with an open roof, arranged such that the two open arms were opposite to each other. The maze was elevated to a height of 50 cm. Four groups of five animals each were tested in the plus-maze 90 minutes following oral gavage of either vehicle, or 100 ng/kg, 10 μg/kg, or 1 mg/kg of delta-2-cefazolin-1-sulfoxide (Δ^2-cefazolin sulfoxide). At the start of the experiment the animal was place in the center of the plus maze facing the closed arm. Over a 3 minute observation period, animals were scored for the latency to enter the closed arm, time spent in the closed arm, and the number of open arm entries following the first occupation of the closed arm.

[4] = test system: Syrian golden hamsters (Mesocricetus auratus); settings: in vivo, po
Excerpt: Method. […] Ninety min after oral gavage an intruder was placed into the home cage and the resident scored for offensive aggression. Following aggression testing, animals were screened for motor activity in an open field paradigm and sexual motivation (FIGS. 4a-b).

[5] = test system: Syrian golden hamsters (Mesocricetus auratus); assay: resident/intruder model of offensive aggression (serenic activity); assay type: in vivo
Excerpt: Agonistic behavior can be classified as either offensive or defensive aggression (Blanchard, R. J., Blanchard, D. C. (1977) Physiology and Behavior, 1, 197-224; Adams, D. B. (1979) The Behavioral Brain Sciences, 2, 201-241; Albert, D. J. and Walsh, M. L. (1984) Neuroscience and Behavioral Reviews, 8, 5-24). Offensive aggression is characterized by the aggressor initiating an attack on an opponent, while defensive aggression lacks active approach. Both types of aggression have their own unique neurobehavioral systems. The stimuli that elicit offensive and defense attacks are different, as are the sequences of behaviors that accompany each agonistic response. […] Offensive aggression is easily studied using male golden hamsters tested in a resident/intruder paradigm, an established model of offensive aggression ([…]. (1988) Physiology and Behavior, 44, 235-239). Placing an unfamiliar male hamster into the home cage of another male hamster elicits a well-defined sequence of agonistic behaviors from the resident that includes offensive aggression. Animal Care. Male Syrian golden hamsters (Mesocricetus auratus) (140-150 g) obtained from Harlan Sprague-Dawley Laboratories (Indianapolis, Ind.) were housed individually in Plexiglas cages (24 cm×24 cm×20 cm), maintained on a reverse light:dark cycle ([…]:10D; lights on at 19:00 hr) and provided food and water ad libitum. Animals were acclimated to the reverse light:dark cycle for at least two weeks before testing. All behavioral tests were conducted during the dark phase of the circadian cycle. Behavioral Measures and Analysis. Hamsters are nocturnal and as such behavioral tests were performed during the first four hours of the dark phase under dim red illumination. The resident was scored for offensive aggression, e.g., latency to bite the intruder, total contact time with the intruder, the total number of bites, and flank marking, over a 10 minute test period ([…]. (1988) Physiology and Behavior, 44, 235-239). Flank marking is a form of olfactory communication in which a hamster arches its back and rubs pheromone producing flank glands against objects in the environment (Johnston, R. E. (1985) Communication, In: THE HAMSTER REPRODUCTION AND BEHAVIOR. Ed Siegel, H. I. Plenum Press, New York, pp 121-154). […] Parametric data, i.e., latencies and contact time, were analyzed with a one-way ANOVA followed by Newman-Keuls post hoc tests. Non-parametric data, i.e., number of bites and flank marks, were analyzed with Kruskal-Wallis tests followed by Mann-Whitney U tests to determine differences between groups. Method. […] Ninety min after oral gavage an intruder was placed into the home cage and the resident scored for offensive aggression. Following aggression testing, animals were screened for motor activity in an open field paradigm and sexual motivation (FIGS. 4a-b).

## Cc1nnc(SCC2=C(C(=O)O)N3C(=O)[C@@H](NC(=O)Cn4cnnn4)[C@H]3[S+]([O-])C2)s1 (some centres unmarked) [Δ^3-cefazolin sulfoxide, cefazolin-1-sulfoxide]
[1]; pg/15 μl (FIG. 6a)
  DOPAC levels (dopamine metabolite): significant (*p<0.05; **p<0.01) dose-dependent increase
[1]; pg/15 μl (FIG. 6b)
  HVA levels (dopamine metabolite): significant (*p<0.05; **p<0.01) dose-dependent increase
[1]; pg/15 μl (FIG. 6c)
  HIAA levels (serotonin metabolite): significant (*p<0.05; **p<0.01) dose-dependent increase
BALBc mice; day five, vs vehicle
  number of errors: no significant difference
BALBc mice; testing days three and four, vs vehicle control (*p<0.05, **p<0.01) (FIG. 5)
  number of errors: significantly reduced

## O=C1CC2(CCCC2)CC(=O)N1CCCCN1CCN(c2ncccn2)CC1 [buspirone]
Golden hamsters
  effect on seed finding: dramatically reduce

## CNCCCN1c2ccccc2CCc2ccccc21 [desipramine]
Golden hamsters
  effect on seed finding: ineffective

## CN1C(=O)CN=C(c2ccccc2)c2cc(Cl)ccc21 [diazepam]
Wistar rats [2]
  number of entries into the open arms: significantly increase
  percentage of time spent in the open arms: significantly increase

## COC(=O)[C@@H]1[C@H]2C[C@H]3c4[nH]c5ccccc5c4CCN3C[C@@H]2CC[C@@H]1O [yohimbine]
Golden hamsters
  effect on seed finding: ineffective
Wistar rats [2]
  number of entries into the open arms: reduce
  percentage of time spent in the open arms: reduce

## CNCCC(Oc1ccc(C(F)(F)F)cc1)c1ccccc1 (centres unmarked) [fluoxetine]
Golden hamsters
  effect on seed finding: dramatically reduce

## delta-2-cefazolin-1-sulfoxide
Wistar rats [3]; given orally to rats
  anxiolytic activity in the elevated plus-maze: dose-dependent anxiolytic activity
Wistar rats [3]; rats, oral gavage 100 ng/kg, 10 μg/kg, 1 mg/kg, 90 min, 3 minute observation, vs vehicle (FIG. 2a)
  latency to enter the closed arm: increased
Wistar rats [3]; rats, oral gavage 100 ng/kg, 10 μg/kg, 1 mg/kg, 90 min, vs vehicle (FIG. 2b)
  time spent in the open arm: significantly increased (p<0.01)
[4]
  motor activity (open field): no change
  sexual motivation: no change
[5]; oral gavage
  serenic activity, inhibiting offensive aggression: very effective serenic
[5]; oral gavage 100 ng/kg, 10 μg/kg, 1 mg/kg, 90 min, 10 minute test (FIG. 3d)
  flank marking: significantly increased
[5]; oral gavage 100 ng/kg, 10 μg/kg, 1 mg/kg, 90 min, 10 minute test, p<0.01 (FIG. 3a)
  latency to bite: significantly increased
[5]; oral gavage 100 ng/kg, 10 μg/kg, 1 mg/kg, 90 min, 10 minute test, p<0.01 (FIG. 3c)
  number of bites: decreased
[5]; oral gavage, 90 min, 10 minute test, highest dose (1 mg/kg) (FIG. 3b)
  contact time: significantly reduced at the highest dose
